Test results published in US20150005281A1, “PYRIMIDINE-2,4-DIAMINE DERIVATIVES AS KINASE INHIBITORS” (Cellzome Limited, priority 2011, published 2015).

What was measured:
[1] = Changelian et al., 2003; cited from earlier work
[2] = target: T1, JAK2 (Homo sapiens, UniProt O60674); assay: Kinobeads assay with immunodetection, JAK2; type: binding; conditions: mixed Molt4/Ramos lysate, read-out: Inhibition values (IC50) JAK2
T1 construct: endogenous in cells; host or cells: Molt4 (ATCC CRL-1582) and Ramos (ATCC CRL-1596) cells; mixed lysate 1:2
T1 sequence (O60674 whole entry): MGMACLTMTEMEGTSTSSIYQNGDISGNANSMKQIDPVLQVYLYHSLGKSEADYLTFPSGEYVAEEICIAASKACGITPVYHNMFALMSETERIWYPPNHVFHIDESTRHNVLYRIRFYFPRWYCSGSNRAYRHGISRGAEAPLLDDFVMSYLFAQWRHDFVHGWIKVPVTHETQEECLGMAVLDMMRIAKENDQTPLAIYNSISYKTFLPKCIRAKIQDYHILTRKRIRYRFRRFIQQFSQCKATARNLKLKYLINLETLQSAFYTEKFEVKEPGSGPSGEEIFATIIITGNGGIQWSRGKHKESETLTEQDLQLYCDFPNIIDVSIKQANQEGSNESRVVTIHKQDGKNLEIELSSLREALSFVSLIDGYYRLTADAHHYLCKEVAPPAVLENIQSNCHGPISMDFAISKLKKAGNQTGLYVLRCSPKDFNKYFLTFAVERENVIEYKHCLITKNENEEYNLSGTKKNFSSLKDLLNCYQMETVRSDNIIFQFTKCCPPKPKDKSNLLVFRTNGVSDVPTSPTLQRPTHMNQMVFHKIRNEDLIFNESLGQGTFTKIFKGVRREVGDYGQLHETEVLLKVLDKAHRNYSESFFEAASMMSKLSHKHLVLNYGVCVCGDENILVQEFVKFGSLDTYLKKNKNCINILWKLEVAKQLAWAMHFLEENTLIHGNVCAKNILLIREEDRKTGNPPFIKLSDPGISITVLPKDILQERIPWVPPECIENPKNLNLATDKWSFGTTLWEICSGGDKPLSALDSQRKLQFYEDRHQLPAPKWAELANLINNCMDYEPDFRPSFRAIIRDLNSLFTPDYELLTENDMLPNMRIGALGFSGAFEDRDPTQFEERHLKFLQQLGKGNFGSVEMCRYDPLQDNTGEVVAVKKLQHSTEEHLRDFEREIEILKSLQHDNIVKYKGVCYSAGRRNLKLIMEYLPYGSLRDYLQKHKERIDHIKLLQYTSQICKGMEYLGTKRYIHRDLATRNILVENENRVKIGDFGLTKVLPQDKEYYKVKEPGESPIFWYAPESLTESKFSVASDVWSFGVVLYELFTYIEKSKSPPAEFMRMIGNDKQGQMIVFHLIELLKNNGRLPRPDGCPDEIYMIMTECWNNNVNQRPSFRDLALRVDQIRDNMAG
Method in brief: (§1)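 Mixed Molt4/Ramos lysate (1:2, 10 mg/mL protein) incubated 3 h in the cold with compound (1:3 series from 5 mM DMSO stock) and immobilized aminopyrido-pyrimidine Kinobeads. Bead-bound JAK1, JAK2, JAK3 and TYK2 eluted and quantified by antibody dot blot (Odyssey), IC50 from dose-response curves.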

[3] = target: T2, TYK2 (Homo sapiens, UniProt P29597); assay: Kinobeads assay with immunodetection, TYK2; type: binding; conditions: Kinobeads assay, mixed Molt4/Ramos lysate; read-out: Inhibition values (IC50) Tyk2
T2 construct: endogenous in cells; host or cells: Molt4 (ATCC CRL-1582) and Ramos (ATCC CRL-1596) cells; mixed lysate 1:2
T2 sequence (P29597 whole entry): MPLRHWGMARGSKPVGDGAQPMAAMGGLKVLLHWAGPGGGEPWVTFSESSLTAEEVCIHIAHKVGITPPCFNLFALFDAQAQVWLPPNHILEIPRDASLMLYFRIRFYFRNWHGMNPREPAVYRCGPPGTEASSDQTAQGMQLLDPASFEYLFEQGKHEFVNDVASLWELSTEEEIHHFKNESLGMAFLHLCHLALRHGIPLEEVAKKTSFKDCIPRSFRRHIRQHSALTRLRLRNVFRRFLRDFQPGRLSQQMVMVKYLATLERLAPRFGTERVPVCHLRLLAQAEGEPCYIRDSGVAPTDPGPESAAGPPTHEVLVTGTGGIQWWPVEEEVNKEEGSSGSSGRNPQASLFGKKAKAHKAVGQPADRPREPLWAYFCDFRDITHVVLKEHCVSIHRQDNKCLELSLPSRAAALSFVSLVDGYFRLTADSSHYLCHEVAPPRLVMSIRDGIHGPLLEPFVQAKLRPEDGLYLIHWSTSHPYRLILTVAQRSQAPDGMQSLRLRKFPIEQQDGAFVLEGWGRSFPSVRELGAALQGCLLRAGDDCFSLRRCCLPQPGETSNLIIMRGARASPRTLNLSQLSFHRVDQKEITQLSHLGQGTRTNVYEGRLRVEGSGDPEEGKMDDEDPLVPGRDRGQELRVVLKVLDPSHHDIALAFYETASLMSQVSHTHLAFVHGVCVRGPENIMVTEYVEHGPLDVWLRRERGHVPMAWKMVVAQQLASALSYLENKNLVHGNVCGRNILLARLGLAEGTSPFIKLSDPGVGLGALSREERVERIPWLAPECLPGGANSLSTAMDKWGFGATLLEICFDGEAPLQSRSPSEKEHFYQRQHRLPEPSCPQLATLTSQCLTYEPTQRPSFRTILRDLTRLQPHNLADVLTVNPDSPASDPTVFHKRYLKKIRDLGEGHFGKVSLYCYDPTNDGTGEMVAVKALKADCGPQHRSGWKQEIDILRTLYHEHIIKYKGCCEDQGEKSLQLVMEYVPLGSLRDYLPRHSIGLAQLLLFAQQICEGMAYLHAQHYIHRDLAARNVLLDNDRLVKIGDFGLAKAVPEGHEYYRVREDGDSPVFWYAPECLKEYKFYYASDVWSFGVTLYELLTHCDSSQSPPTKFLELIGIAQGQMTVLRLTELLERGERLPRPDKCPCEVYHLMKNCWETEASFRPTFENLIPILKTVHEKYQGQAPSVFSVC
Method in brief: as §1

[4] = target: T3, JAK1 (Homo sapiens, UniProt P23458); assay: Kinobeads assay with immunodetection, JAK1; type: binding; conditions: for IC50: Kinobeads assay, mixed Molt4/Ramos lysate, read-out: Inhibition values (IC50) JAK1
T3 construct: endogenous in cells; host or cells: Molt4 (ATCC CRL-1582) and Ramos (ATCC CRL-1596) cells; mixed lysate 1:2
T3 sequence (P23458 whole entry): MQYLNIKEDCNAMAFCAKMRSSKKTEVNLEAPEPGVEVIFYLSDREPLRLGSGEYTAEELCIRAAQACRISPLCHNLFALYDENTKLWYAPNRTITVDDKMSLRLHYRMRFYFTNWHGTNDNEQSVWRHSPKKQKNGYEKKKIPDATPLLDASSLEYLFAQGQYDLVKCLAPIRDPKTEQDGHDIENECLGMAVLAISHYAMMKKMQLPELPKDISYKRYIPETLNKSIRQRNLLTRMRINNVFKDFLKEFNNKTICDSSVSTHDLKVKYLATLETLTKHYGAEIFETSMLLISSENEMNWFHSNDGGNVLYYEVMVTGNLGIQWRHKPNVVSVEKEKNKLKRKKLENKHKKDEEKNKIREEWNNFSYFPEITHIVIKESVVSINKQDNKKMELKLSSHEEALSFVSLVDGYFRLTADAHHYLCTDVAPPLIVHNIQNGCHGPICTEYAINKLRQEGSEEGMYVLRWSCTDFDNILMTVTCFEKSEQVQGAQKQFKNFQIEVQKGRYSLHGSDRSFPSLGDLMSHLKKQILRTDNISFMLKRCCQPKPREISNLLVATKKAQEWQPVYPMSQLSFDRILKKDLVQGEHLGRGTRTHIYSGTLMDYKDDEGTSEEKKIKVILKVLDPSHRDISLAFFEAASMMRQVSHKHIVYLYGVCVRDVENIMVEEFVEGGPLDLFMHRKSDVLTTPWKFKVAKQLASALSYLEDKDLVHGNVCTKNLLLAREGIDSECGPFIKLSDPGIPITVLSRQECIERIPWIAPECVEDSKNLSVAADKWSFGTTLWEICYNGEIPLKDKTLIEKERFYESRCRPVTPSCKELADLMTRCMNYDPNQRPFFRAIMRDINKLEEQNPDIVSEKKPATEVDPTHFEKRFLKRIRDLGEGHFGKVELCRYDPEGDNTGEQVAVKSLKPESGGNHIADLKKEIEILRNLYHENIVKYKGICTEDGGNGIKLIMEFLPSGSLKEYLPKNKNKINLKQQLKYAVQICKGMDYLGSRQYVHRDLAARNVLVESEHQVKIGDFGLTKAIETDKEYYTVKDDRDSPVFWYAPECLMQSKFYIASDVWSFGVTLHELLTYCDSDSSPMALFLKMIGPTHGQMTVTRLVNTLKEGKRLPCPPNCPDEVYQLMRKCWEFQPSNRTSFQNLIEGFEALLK
Method in brief: as §1

[5] = target: T4, JAK3 (Homo sapiens, UniProt P52333); assay: Kinobeads assay with immunodetection, JAK3; type: binding; conditions: for IC50: Kinobeads assay, mixed Molt4/Ramos lysate, read-out: Inhibition values (IC50) JAK3
T4 construct: endogenous in cells; host or cells: Molt4 (ATCC CRL-1582) and Ramos (ATCC CRL-1596) cells; mixed lysate 1:2
T4 sequence (P52333 1-1124): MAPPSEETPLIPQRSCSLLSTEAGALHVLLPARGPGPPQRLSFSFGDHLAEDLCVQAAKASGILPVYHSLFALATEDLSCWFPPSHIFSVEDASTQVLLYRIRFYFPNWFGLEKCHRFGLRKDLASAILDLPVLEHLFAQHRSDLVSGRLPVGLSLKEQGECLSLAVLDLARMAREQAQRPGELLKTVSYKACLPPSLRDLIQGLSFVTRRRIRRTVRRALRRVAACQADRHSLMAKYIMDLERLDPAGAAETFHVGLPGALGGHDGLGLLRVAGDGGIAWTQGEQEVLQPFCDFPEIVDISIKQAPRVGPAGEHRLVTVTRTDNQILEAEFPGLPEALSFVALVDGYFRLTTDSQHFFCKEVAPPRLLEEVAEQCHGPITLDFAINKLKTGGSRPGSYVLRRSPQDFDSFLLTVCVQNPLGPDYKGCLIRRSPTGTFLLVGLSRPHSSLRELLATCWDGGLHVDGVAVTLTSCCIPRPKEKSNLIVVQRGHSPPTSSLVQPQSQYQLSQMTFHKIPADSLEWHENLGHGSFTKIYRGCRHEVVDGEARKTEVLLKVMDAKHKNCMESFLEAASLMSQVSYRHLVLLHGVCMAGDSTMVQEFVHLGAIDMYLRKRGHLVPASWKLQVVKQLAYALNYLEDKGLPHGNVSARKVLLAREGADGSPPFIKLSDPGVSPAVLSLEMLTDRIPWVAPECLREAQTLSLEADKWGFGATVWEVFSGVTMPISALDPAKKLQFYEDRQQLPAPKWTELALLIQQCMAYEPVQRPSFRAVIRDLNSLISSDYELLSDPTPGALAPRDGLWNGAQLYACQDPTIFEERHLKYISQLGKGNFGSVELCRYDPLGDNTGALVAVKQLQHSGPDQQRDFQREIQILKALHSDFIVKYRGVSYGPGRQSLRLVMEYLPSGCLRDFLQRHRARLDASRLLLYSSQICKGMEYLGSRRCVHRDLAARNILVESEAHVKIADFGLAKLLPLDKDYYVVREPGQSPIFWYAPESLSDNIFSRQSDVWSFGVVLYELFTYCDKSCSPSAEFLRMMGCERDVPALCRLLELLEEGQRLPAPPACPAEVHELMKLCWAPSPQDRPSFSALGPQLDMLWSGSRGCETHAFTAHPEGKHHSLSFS
Method in brief: as §1

[6] = NOD mouse; cited from earlier work
[7] = Cetkovic-Cvrlje and Ucken, 2004; cited from earlier work

SMILES | IC50 [2] | IC50 [3] | Selectivity ratio over JAK2, JAK1 [4] | IC50 [4] | IC50 [5] | Selectivity ratio over JAK2, JAK3 [5] | efficacy in organ transplantation model [1] | spontaneous autoimmune diabetes development [6] | severity of GVHD [7]
C[C@@H]1CCN(C(=O)CC#N)C[C@@H]1N(C)c1ncnc2[nH]ccc12 [CP-690,550] | – | – | – | – | – | – | efficacy | – | –
Cc1cnc(Nc2cnn(CC(F)F)c2)nc1NC[C@H]1CCN(C(=O)CCC#N)C1 [Example 130, (R)-4-(3-(((2-((1-(2,2-difluoroethyl)-1H-pyrazol-4-yl)amino)-5-methylpyrimidin-4-yl)amino)methyl)pyrrolidin-1-yl)-4-oxobutanenitrile] | 0.1 to 1 µM | < 0.1 µM | JAK1 = 143 | < 0.1 µM | 0.1 to 1 µM | – | – | – | –
Cn1cc(Nc2ncc(Cl)c(NC[C@@H]3C[C@H](F)CN3CCCS(C)(=O)=O)n2)cn1 [Example 132, 5-chloro-N^4-(((2S,4S)-4-fluoro-1-(3-(methylsulfonyl)propyl)pyrrolidin-2-yl)methyl)-N^2-(1-methyl-1H-pyrazol-4-yl)pyrimidine-2,4-diamine] | 1 to 10 µM | < 0.1 µM | JAK1 = 100 | < 0.1 µM | 0.1 to 1 µM | – | – | – | –
Cn1cc(Nc2ncc(Cl)c(NC[C@@H]3C[C@H](F)CN3CCCC#N)n2)cn1 [Example 133, 4-((2S,4S)-2-(((5-chloro-2-((1-methyl-1H-pyrazol-4-yl)amino)pyrimidin-4-yl)amino)methyl)-4-fluoropyrrolidin-1-yl)butanenitrile] | < 0.1 µM | < 0.1 µM | JAK1 = 19 | < 0.1 µM | < 0.1 µM | – | – | – | –
Cn1cc(Nc2ncc(Cl)c(NCC3CCCN(C(=O)CC#N)C3)n2)cn1 (stereo not drawn) [Example 134, 3-(3-(((5-chloro-2-((1-methyl-1H-pyrazol-4-yl)amino)pyrimidin-4-yl)amino)methyl)piperidin-1-yl)-3-oxopropanenitrile] | 0.1 to 1 µM | < 0.1 µM | – | < 0.1 µM | < 0.1 µM | JAK3 = 32 | – | – | –
Cn1cc(Nc2ncc(Cl)c(NC[C@@H]3CCCN(C(=O)CC#N)C3)n2)cn1 [Example 135, (S)-3-(3-(((5-chloro-2-((1-methyl-1H-pyrazol-4-yl)amino)pyrimidin-4-yl)amino)methyl)piperidin-1-yl)-3-oxopropanenitrile] | 0.1 to 1 µM | < 0.1 µM | – | < 0.1 µM | < 0.1 µM | JAK3 = 40 | – | – | –
Cn1cc(Nc2ncc(Cl)c(NC[C@H]3CCCN(C(=O)CCC#N)C3)n2)cn1 [Example 138, (R)-4-(3-(((5-chloro-2-((1-methyl-1H-pyrazol-4-yl)amino)pyrimidin-4-yl)amino)methyl)piperidin-1-yl)-4-oxobutanenitrile] | 0.1 to 1 µM | < 0.1 µM | – | < 0.1 µM | < 0.1 µM | JAK3 = 23 | – | – | –
COc1cc2ncnc(Nc3ccc(O)cc3)c2cc1OC [JANEX-1] | – | – | – | – | – | – | – | prevent spontaneous autoimmune diabetes development | attenuate the severity of GVHD

Second part, led by results:

IC50 [2] | IC50 [3] | Selectivity ratio over JAK2, JAK1 [4] | IC50 [4] | IC50 [5] | Selectivity ratio over JAK2, JAK3 [5] | SMILES | efficacy in organ transplantation model [1] | spontaneous autoimmune diabetes development [6] | severity of GVHD [7]
1 to 10 µM | 0.1 to 1 µM | JAK1 = 77 | < 0.1 µM | 0.1 to 1 µM | – | Cc1cnc(Nc2cnn(CC(F)F)c2)nc1NC[C@H]1CCN(CCC#N)C1 [Example 128, (R)-3-(3-(((2-((1-(2,2-difluoroethyl)-1H-pyrazol-4-yl)amino)-5-methylpyrimidin-4-yl)amino)methyl)pyrrolidin-1-yl)propanenitrile] | – | – | –
1 to 10 µM | < 0.1 µM | JAK1 = 139 | < 0.1 µM | 0.1 to 1 µM | – | Cc1cnc(Nc2cnn(CC(F)F)c2)nc1NC[C@H]1CCN(C(=O)CC#N)C1 [Example 129, (R)-3-(3-(((2-((1-(2,2-difluoroethyl)-1H-pyrazol-4-yl)amino)-5-methylpyrimidin-4-yl)amino)methyl)pyrrolidin-1-yl)-3-oxopropanenitrile] | – | – | –
0.1 to 1 µM | < 0.1 µM | – | < 0.1 µM | < 0.1 µM | JAK3 = 85 | Cn1cc(Nc2ncc(Cl)c(NC[C@H]3CCCN3CC#N)n2)cn1 [Example 131, (R)-2-(2-(((5-chloro-2-((1-methyl-1H-pyrazol-4-yl)amino)pyrimidin-4-yl)amino)methyl)pyrrolidin-1-yl)acetonitrile] | – | – | –
0.1 to 1 µM | 0.1 to 1 µM | – | 0.1 to 1 µM | < 0.1 µM | JAK3 = 78 | Cn1cc(Nc2ncc(Cl)c(NC[C@@H]3CCCN(C(=O)CCC#N)C3)n2)cn1 [Example 136, (S)-4-(3-(((5-chloro-2-((1-methyl-1H-pyrazol-4-yl)amino)pyrimidin-4-yl)amino)methyl)piperidin-1-yl)-4-oxobutanenitrile] | – | – | –
0.1 to 1 µM | < 0.1 µM | – | < 0.1 µM | < 0.1 µM | JAK3 = 33 | Cn1cc(Nc2ncc(Cl)c(NC[C@H]3CCCN(C(=O)CC#N)C3)n2)cn1 [Example 137, (R)-3-(3-(((5-chloro-2-((1-methyl-1H-pyrazol-4-yl)amino)pyrimidin-4-yl)amino)methyl)piperidin-1-yl)-3-oxopropanenitrile] | – | – | –
1 to 10 µM | 0.1 to 1 µM | – | < 0.1 µM | < 0.1 µM | JAK3 = 83 | CC(C)S(=O)(=O)CCN1CCC[C@@H]1CNc1nc(Nc2cnn(C)c2)ncc1Cl [Example 139, (R)-5-chloro-N^4-((1-(2-(isopropylsulfonyl)ethyl)pyrrolidin-2-yl)methyl)-N^2-(1-methyl-1H-pyrazol-4-yl)pyrimidine-2,4-diamine] | – | – | –
